The values that follow come from paper PMC6374920, “Synthesis and biological evaluation of 3-arylcoumarins as potential anti-Alzheimer's disease agents” (Journal of Enzyme Inhibition and Medicinal Chemistry, 2019).

Where only a bound is given, the exact number is not on record here.

The IC50 is the point on the concentration scale where inhibition reaches its midpoint.

Test [1] can be described thus: In vitro antioxidant activity, FRAP assay. As to conditions: FeSO4 as standard; mean ± SD (n = 3). As to the method:
The total antioxidant capacity of the 3-arylcoumarin compounds was measured by the FRAP (the Ferric Reducing Ability of Plasma) assay of Benzie et al.[29] with slight modifications. This method is based on the reduction of colourless Fe(III)-TPTZ(2,4,6-Tris(2-pyridyl)-s-triazine) complex to coloured Fe(II)-TPTZ complex by the compounds. FRAP working solution (300 mmol/L acetate buffer, 10 mmol/L TPTZ, 20 mmol/LFeCl3) was ready to use. A hundred microlitres of the sample solution was added to 3 ml of FRAP reagent and then incubated at 37 °C for 15 min. The experiments were repeated for three times. The absorbance was measured at 593 nm to clarify the changes. The standard curve was drawn with FeSO4 as standard material, and the regression equation was obtained. With 1.0 mmol/L FeSO4 as standard, the antioxidant activity of the sample is expressed in millimoles of […] required to achieve the same absorbance.

The next test concerns the target T1, MAO-B (Rattus norvegicus, UniProt P19643).
T1 construct: The crude enzyme was extracted from the liver of 200–250 g of Wistar rats; from tissue; host or cells: Wistar rat liver, crude enzyme extract
T1 sequence (P19643 1-520): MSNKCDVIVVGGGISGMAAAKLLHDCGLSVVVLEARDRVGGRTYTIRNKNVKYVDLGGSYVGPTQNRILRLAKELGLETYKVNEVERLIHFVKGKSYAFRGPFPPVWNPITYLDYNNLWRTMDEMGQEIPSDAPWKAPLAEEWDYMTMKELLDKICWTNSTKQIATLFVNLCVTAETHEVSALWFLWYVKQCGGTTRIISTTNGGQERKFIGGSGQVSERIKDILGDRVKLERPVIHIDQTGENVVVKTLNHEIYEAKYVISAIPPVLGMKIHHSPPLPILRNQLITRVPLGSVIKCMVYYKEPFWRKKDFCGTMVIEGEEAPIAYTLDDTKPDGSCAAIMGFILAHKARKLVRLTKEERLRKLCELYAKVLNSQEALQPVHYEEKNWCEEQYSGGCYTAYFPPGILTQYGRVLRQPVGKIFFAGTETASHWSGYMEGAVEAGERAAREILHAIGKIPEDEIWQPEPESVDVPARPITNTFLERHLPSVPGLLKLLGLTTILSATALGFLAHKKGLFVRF
The experiment in a line: In vitro monoamine oxidase inhibitory activity (Holt method, crude enzyme from rat liver). It is filed as biochemical. The note with it: crude enzyme from Wistar rat liver; mean ± SD (n = 3). As to the method:
The MAO inhibitory activity of the 3-arylcoumarin compounds was determined by the method of Holt et al.[26] with slight modifications. The crude enzyme was extracted from the liver of 200–250 g of Wistar rats according to literature methods. The crude enzyme protein content was determined by the Bradford/method using a Bradford Protein Assay Kit (Beyotime). Forty microlitres of enzyme solution and 40 µL of sample solution were added to a 96-well plate. The solution was then incubated at 37 °C for 20 min. One-twenty microlitres of the 4-(trifluoromethyl) benzylamine solution and 40 µL of the chromogenic agent (1 mmol/L vanillic acid, 0.5 mmol/L 4-aminoantipyrine, 4U/mL horseradish peroxidase, 0.2 M pH = 7.6 PBS constant volume) were added subsequently, and incubated at 37 °C for 90 min. The absorbance was measured at 490 nm using a microplate reader, and the inhibition rate of MAO and the IC50 value of each sample were calculated according to the formula. The control group replaced the sample solution with PBS (0.2 M, pH = 7.6), the positive control replaced the sample with the positive drug, and the blank group replaced the substrate with PBS, and each group was measured three times in parallel to average. Monoamineoxidase inhibitory effect (%)=[(AC−AB)−(AS−ASB)]/(AC−AB)×100% where AC is the absorbance of control group; AB is the absorbance of blank group; AS is the absorbance of sample group; ASB is the absorbance of sample blank group.
MAO plays an important role in neurotransmitter inactivation, and MAO dysfunction is considered to be the cause of many mental and neurological diseases. MAO plays an important role in AD pathology, and the progress of AD has a close correlation with MAO activity[35]^,[36]. All the synthesised compounds were evaluated for their MAO inhibitory activity in the way of Holt[26] by references. […] The MAO used in the experiment was self-made.

Another test deals with AChE from electric eel (Electrophorus electricus, UniProt O42275). The note with it: read-out: IC50 value AChE inhibitory activity, mean ± SD (n = 3). The method, then: (§1) The anticholinesterase activity of the 3-arylcoumarin compounds was determined by the method of Ellman et al.[25] with slight modifications. AChE inhibitory activities were determined by AChE from electric eel (Macklin). BuChE inhibitory activities were determined by BuChE from horse serum (Aladdin). To a 10 ml tube, 2.65 ml of phosphate buffer solution (0.1 M, pH = 8.0), 100 µL of 5,5-dithiobis-2-nitrobenzoic acid (0.75 mM in 0.1 M phosphate buffer solution, pH = 8.0) were added sequentially, 50 µL AChE solution (0.2 U/mL in 0.1 M phosphate buffer solution, pH = 8.0), 100 µL of different concentrations of the sample solution, shaken well, and incubated at 37 °C for 5 min. Then 100 µL of substrate (1.5 mM in 0.1 M phosphate buffer solution, pH = 8.0) were added, shaken well, and incubated at 37 °C for 20 min. After the reaction was completed, 1 ml of sodium lauryl sulphate (4%, SDS in water) was added. […] Determination of the inhibitory activity of BuChE is similar. The sample blank group replaced the substrate with PBS, and the blank group replaced the sample solution with a solvent. The sample solution was set to five concentration gradients and the experiment was repeated three times. […] Cholinesterase inhibitory effect (%)=[A0−(A1−A2)]/A0×100% where A0 is the absorbance of blank group; A1 is the absorbance of sample group; A2 is the absorbance of sample blank group.
AChE from electric eel, sequence (O42275 24-633): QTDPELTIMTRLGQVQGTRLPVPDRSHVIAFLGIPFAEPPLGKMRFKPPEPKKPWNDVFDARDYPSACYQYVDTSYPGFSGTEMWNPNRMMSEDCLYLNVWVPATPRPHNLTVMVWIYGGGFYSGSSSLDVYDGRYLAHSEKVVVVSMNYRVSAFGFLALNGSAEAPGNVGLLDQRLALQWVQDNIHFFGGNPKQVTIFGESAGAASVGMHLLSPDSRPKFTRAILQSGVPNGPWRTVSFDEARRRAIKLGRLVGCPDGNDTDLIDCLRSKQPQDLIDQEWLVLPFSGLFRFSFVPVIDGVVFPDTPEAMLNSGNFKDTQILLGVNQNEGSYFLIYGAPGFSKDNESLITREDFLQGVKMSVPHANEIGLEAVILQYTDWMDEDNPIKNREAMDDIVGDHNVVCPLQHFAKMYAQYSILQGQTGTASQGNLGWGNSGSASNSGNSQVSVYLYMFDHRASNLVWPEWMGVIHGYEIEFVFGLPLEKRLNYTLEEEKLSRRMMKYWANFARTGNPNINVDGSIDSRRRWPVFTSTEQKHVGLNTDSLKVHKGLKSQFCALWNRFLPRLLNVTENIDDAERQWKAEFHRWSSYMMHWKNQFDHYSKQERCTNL

Another test concerns the target BuChE from horse serum (Equus caballus, UniProt P81908). As to conditions: for IC50: read-out: IC50 value BuChE inhibitory activity, BuChE from horse serum, mean ± SD (n = 3). As to the method:
as §1

BuChE from horse serum, sequence (P81908 whole entry): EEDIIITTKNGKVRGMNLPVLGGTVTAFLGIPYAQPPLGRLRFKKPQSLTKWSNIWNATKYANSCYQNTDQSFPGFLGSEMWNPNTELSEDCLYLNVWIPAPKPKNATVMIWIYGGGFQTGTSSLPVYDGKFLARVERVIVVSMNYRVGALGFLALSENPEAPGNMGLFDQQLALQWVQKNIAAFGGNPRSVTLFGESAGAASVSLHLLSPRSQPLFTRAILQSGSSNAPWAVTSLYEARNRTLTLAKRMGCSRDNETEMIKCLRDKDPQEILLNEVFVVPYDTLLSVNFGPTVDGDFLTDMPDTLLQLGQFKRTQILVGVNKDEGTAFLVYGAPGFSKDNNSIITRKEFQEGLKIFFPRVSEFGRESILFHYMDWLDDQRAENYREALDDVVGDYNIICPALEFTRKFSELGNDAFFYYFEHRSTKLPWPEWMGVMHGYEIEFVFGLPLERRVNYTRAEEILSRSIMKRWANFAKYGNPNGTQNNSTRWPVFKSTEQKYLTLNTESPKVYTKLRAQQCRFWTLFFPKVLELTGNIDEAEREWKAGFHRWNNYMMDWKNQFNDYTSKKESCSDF

For `O=C1O[C@H]([C@@H](O)CO)C(O)=C1O` [Ascorbic Acid, reference compound], the “FRAP value Antioxidant activity” value in test [1] was 3.79 ± 0.08 mmol/g.
On to `O=c1oc2ccccc2cc1-c1ccc(O)cc1` [Compound 1], for which the “FRAP value Antioxidant activity” value in test [1] is 0.51 ± 0.09 mmol/g. Moreover, the results for the IC50 against MAO-B, on AChE from electric eel and at BuChE from horse serum were > 700 µM, 78.5 ± 2.84 µM and 44.8 ± 2.35 µM, respectively.
`O=c1oc2cc(O)ccc2cc1-c1ccc(O)cc1` [Compound 4]: in test [1], the “FRAP value Antioxidant activity” value turned out to be 7.73 ± 0.12 mmol/g. The IC50 against MAO-B is > 700 µM; on BuChE from horse serum, 34.7 ± 1.87 µM.
With `O=c1oc2cc(O)ccc2cc1-c1ccccc1` [Compound 5], the “FRAP value Antioxidant activity” value in test [1] is reported as 0.42 ± 0.01 mmol/g. The half-inhibitory concentration (IC50) is > 700 µM at MAO-B and 14.4 ± 1.94 µM on BuChE from horse serum. Besides, at BuChE from horse serum (BuChE vs AChE inhibition), the “selectivity BuChE over AChE (in words)” value is listed as “selective BuChE inhibitory activity”.
As for `COc1ccc(-c2cc3ccc(O)cc3oc2=O)cc1` [Compound 9], the “FRAP value Antioxidant activity” value in test [1] amounted to 0.67 ± 0.04 mmol/g. Moreover, the results for the IC50 at MAO-B and at BuChE from horse serum were > 700 µM and 30.1 ± 3.06 µM, respectively.
`COc1ccc2cc(-c3ccc(O)cc3)c(=O)oc2c1` [Compound 13]: in test [1], the “FRAP value Antioxidant activity” value is 0.61 ± 0.11 mmol/g. Besides, the results for the IC50 against MAO-B, on AChE from electric eel and at BuChE from horse serum were > 700 µM, 42.4 ± 3.16 µM and 70.7 ± 5.75 µM, respectively.
